The subject of test [1] is A2780-CP70 cells. The experiment in a line: Cisplatin sensitivity of A2780-CP70 cells (percent cell growth). Conditions: read-out: IC50 of cisplatin.
Description: Controls included α-tubulin and histone deactylase.
Transfected cells were treated with 0 μM, 2 μM, 5 μM, 10 μM, 30 μM, and 50 μM cisplatin at 24 hr post-transfection.
Test [2] deals with A2780-CP70 cells. Conditions: A2780-CP70, cisplatin-resistant; cited from earlier work.
Test [3] has as its system ERCC1, XPD, XRCC1. The experiment in a line: ERCC1, XPD and XRCC1 mRNA levels in A2780-CP70 cells (semi-quantitative PCR). It is filed as cell-based, human. The following applies: cells treated with cisplatin.
Test [4] concerns c-jun. Description: c-jun and c-fos protein expression and c-jun phosphorylation in A2780-CP70 cells (Western blot). It is filed as cell-based, human. Conditions: IC50 dose of cisplatin. How it is done: c-jun protein expression was assessed in cisplatin-treated A2780-CP70 cells using Western blot analysis.
Protein expression of c-fos and phosphorylation of c-jun in cyclopamine-treated A2780-CP70 cells was assessed using Western blot analysis. Protein levels for c-jun, c-fos, phosphorylated c-jun (Ser 63), phosphorylated c-jun (Ser 73), and phosphorylated c-jun (Thr 91, Thr 93) were tested in cytosolic, nuclear, and whole cell fractions at 0 hr, 6 hr, 24 hr, 48 hr, and 72 hr. Internal controls for cytosolic and nuclear fractions included α-tubulin and histone deacetylase 3.
Phosphorylation of c-jun in A2780-CP70 cells transfected with anti-GLI1 shRNA construct was assessed using Western blot analysis. Protein levels for c-jun, phosphorylated c-jun (Ser 63), phosphorylated c-jun (Ser 73), and phosphorylated c-jun (Thr 91, Thr 93) were examined at 0 hr, 6 hr, 24 hr, 48 hr, and 72 hr.

Test [5] concerns c-jun. Conditions: cited from earlier work.
The subject of test [6] is ERCC1, XPD, XRCC1. Conditions: cited from earlier work.
The subject of test [7] is MDA-MB-435 (435) and SUM1315 (1315) cells. The experiment in a line: Drug sensitivity of cells transfected with shRNA to GLI1 (MTS assay). It is filed as cell-based, human. The following applies: cells transfected with shRNA to GLI1 vs empty vector; 24 hours. How it is done: MDA-MB-435 (435) and SUM1315 (1315) cells were transfected with either empty vector (vec) or with vector encoding shRNA to GLI1 (shGLI1). Cells were treated with the indicated concentrations of drugs for 24 hours and viability was assessed using an MTS assay (FIG. 62A-FIG. 62C). […] Using real-time quantitative RT-PCR the GLI1 shRNA brings about a decrease of about 50% in the expression of ABCB1 (MDR1) and 90% decrease in ABCG2 (BCRP).

Test [8] has as its system GLI1-knocked down MDA-MB-435 cells. The experiment in a line: Migration, invasion and motility of GLI1-knocked down cells with OPN add-back. Type of test: cell-based, human. How it is done:
Motility Assay—These experiments were performed as previously described (Shevde, L. A., et al. (2006) Clin. Exp. Metastasis 23, 123-133). Images were acquired at T0, the reading at the initial time, and at T10 (10 h later). The experiment was conducted in duplicate and cell motility was calculated as (T0−T10)/T0, which represents the rate of movement over a 10-h period. For OPN add-back experiments the cells were pretreated for 12 h with 100 ng/ml human OPN (recombinant R & D Systems) and the assay conducted in the presence of OPN. Each experimental group was assessed in duplicate and data were recorded in three fields per well. Thus, six data points were recorded and analyzed per experimental group.
Invasion and Migration Assays—These experiments were performed as previously outlined (18) using a modified Boyden chamber assay. OPN add-back experiments for migration and invasion were conducted as described above with an additional step of pre-treating the cells for 24 h with rOPN. OPN was added to the upper and lower chambers (100 ng/ml) to ensure the OPN was present during the entire duration of the experiment. Each experimental group was assessed as three independent replicates.

The subject of test [9] is RAW264.7 cells. Description: Osteoclast resorption activity (OAAS plates). The following applies: DM with OPN (100 ng/ml) or SHH (100 nM). Type of test: cell-based, murine. How it is done: Osteoclast differentiation and activity assays—Tartarate-resistant acid phosphatase (TRAP) assay was conducted for RAW 264.7 following the manufacturer's protocol (Sigma, St. Louis, Mo.). This assay was indicative of the extent of differentiation. OAAS plates (Osteogenic Core Technologies, Choongnam, Republic of Korea) were utilized to measure osteoclastic activity. RAW 264.7 cells (25×103) were inoculated in 48-well plates. Cells were treated with serum-free conditioned media from breast cancer cells or 100 nM SHH or 100 ng/ml OPN on the following day. Media was changed every two days and the experiments were terminated either on day 6 (day 7 for knockdown experiments, with transfections being done on the sixth day). At the completion, cells were detached with 5% sodium hypochlorite and the wells were observed under a Nikon Eclipse TS 100 microscope at 10× magnification. […] The percentage of area resorbed was calculated using the NIS-Elements BR. 3.1 software.

In test [10] the test system is RAW264.7 cells. The experiment in a line: Osteoclast differentiation (TRAP assay). Type of test: cell-based, murine. The following applies: DM supplemented with OPN (100 ng/ml) or SHH (100 nM) vs DM. How it is done:
Cell lines—Human metastatic breast cancer cells, MDA-MB-231, were cultured in Dulbecco's Modified Eagle's Medium (DMEM/F12; Invitrogen, Carlsbad, Calif.), supplemented with 2 mM L-glutamine, 1 mM sodium pyruvate, 0.02 mM non-essential amino acids, 5% fetal bovine serum, FBS (Atlanta Biologicals, Norcross, Ga.), without antibiotics or antimycotics (cDME/F12). SUM1315 and SUM159 cells (DiMeo, T. A., et al. (2009) Cancer Res 69, 5364-5373) (Asterand, Detroit, Mich.) were cultured in DMEM/F12 supplemented with […], 5% FBS (Atlanta Biologicals) and either 10 ng/ml EGF or 1 ng/ml hydrocortisone, without antibiotics or antimycotics. The SUM1315 cells are derived from a metastasis in a patient with infiltrating ductal carcinoma; SUM159 cells were derived from a primary breast tumor with metaplastic carcinoma. RAW264.7 (ATCC, TIB 71) cells, a murine pre-osteoclastic line capable of differentiation and […] in culture (in presence of RANKL and MCSF), were grown in DMEM with L-glutamine (ATCC, 30-2002) supplemented with 10% FBS. A 2× differentiation medium (DM) was formulated for the RAW 264.7 cells comprising RAW264.7 growth medium supplemented with 20% FBS, RANKL (100 ng/ml) and M-CSF (40 ng/ml) (Matsubara, T., et al. J Bone Miner Res 25, 1068-1076). Conditioned media was harvested from breast cancer cells and mixed in a 1:1 ratio with double strength differentiation medium to assess the effect on osteoclast differentiation. 1×DM was used as control or wherever SHH (R & D Systems, Minneapolis, Minn.) or OPN (R & D Systems) was used alone. The medium on the RAW264.7 cells was replenished every 48 hours. In order to assess the effect of secreted Hh ligands, the neutralizing 5E1 antibody was used (Developmental Studies Hybridoma Bank, at the University of Iowa, Iowa). […] Medium was supplemented with 5E1 (2.5 μg/ml) and was changed on alternate days until the end of the experiment. The effect of OPN on osteoclast activity was assessed by transfecting an OPN shRNA-expressing construct on day 6 post-induction of differentiation. Fresh DM was added the following day and cells were allowed to grow for another 12 hours before termination of experiment. GLI1 expression was silenced in the SUM1315 cells using shRNA targeting GLI1 into pSuperior. gfp+neo (Oligoengine, WA, USA). Silencing of OPN expression was done using OPN-targeting shRNA cloned into pSuper (Oligoengine)
Osteoclast differentiation and activity assays—Tartarate-resistant acid phosphatase (TRAP) assay was conducted for RAW 264.7 following the manufacturer's protocol (Sigma, St. Louis, Mo.). This assay was indicative of the extent of differentiation. […] The percentage of area resorbed was calculated using the NIS-Elements BR. […]

pIC50: −log10 of the molar value. “Also recorded” adds a separate entry of the source. Read-outs that look alike come from different tables or passages of the source.

For `N.N.[Cl][Pt][Cl]` [cisplatin], the negative logarithm of the IC50 (pIC50) in the test with A2780-CP70 cells [1] (cells transfected with 0.07 μg/well anti-Gli1 shRNA construct, cisplatin at 24 hr post-transfection) was 5.10; with A2780-CP70 cells [1] (control cells), 4.55; in the test on A2780-CP70 cells [2], around 4.40. In the test with ERCC1, XPD, XRCC1 [3], the “expression levels of ERCC1, XPD, and XRCC1 proteins, increase” value amounted to 5 fold. In the test with c-jun [4], the c-jun protein expression entry was “increased substantial between 0-6 hr”. Further, the “phosphorylation of c-jun protein, peak over baseline” value in the test on c-jun [5] (3-5 hr after cisplatin treatment) is 15 fold. Moreover, in the test with c-jun [5] (after cisplatin exposure), the “time of peak c-jun (Ser 63/73) protein levels” value is 3 to 5 h. Further, the “expected increase in ERCC1 mRNA levels” value in the test on ERCC1, XPD, XRCC1 [6] (cells treated with cisplatin only) is given as 6 fold. Further, the “ERCC1 mRNA half-life” value in the test on ERCC1, XPD, XRCC1 [6] (cisplatin-treated cells (14 hr in untreated cells)) was 24 h. The “ERCC1, XPD, or XRCC1 regulation” value with ERCC1, XPD, XRCC1 [6] (previous experiments, agents at IC50 doses) was “up-regulated”.
For the compound `COc1cccc2c1C(=O)c1c(O)c3c(c(O)c1C2=O)C[C@@](O)(C(=O)CO)C[C@@H]3O[C@H]1C[C@H](N)[C@H](O)[C@H](C)O1` [doxorubicin], the “sensitivity to drug (viability, MTS assay)” value in [7] is on record as “increased sensitivity”.
`CC(=O)O[C@H]1C(=O)[C@@]2(C)[C@H]([C@H](OC(=O)c3ccccc3)[C@]3(O)C[C@H](OC(=O)[C@H](O)[C@@H](NC(=O)c4ccccc4)c4ccccc4)C(C)=C1C3(C)C)[C@]1(OC(C)=O)CO[C@@H]1C[C@@H]2O` [taxol]: the “sensitivity to drug (viability, MTS assay)” value in [7] was “increased sensitivity”.
Regarding “OPN: recombinant human osteopontin (R & D Systems)”, the “cell motility (wound healing assay)” value in [8] (KO1 and KO4 cells in presence of recombinant OPN) is listed as “restored”. In test [8] (KO1 and KO4 cells, OPN 100 ng/ml vs untreated), the “cell invasion through Matrigel” value is “significantly larger numbers”. Moreover, the cell migration result in test [8] (KO1 and KO4 cells, OPN 100 ng/ml vs untreated, modified Boyden chamber) was “significantly larger numbers”. Also, the “resorption activity of differentiated osteoclasts” value in the test with RAW264.7 cells [9] was “significantly (* indicates p<0.001) increases the resorption activity”. In addition, the “numbers of multinucleate TRAP-positive cells” value in the test with RAW264.7 cells [10] is “stimulate osteoclast differentiation; also recorded: significantly (* indicates p<0.005) increases”.

The values are drawn from patent publication US9540647B2, “Methods and compositions for the treatment of cancer” (University of South Alabama, priority 2010, dated 2017).
